Our source for the Ki, IC50 and Kd values is article PMC4859520, “Binding Properties of General Odorant Binding Proteins from the Oriental Fruit Moth, Grapholita molesta (Busck) (Lepidoptera: Tortricidae)” (PLoS ONE, 2016).

SMILES strings stand for the structures. Read-outs that look alike come from different tables or passages of the source.

One assay deals with GmolGOBP1 (Grapholita molesta, UniProt H9XTU5). Kind of assay: Fluorescence competitive binding assay with probe 1-NPN, rGmolGOBP1. Here is the method: (§1) Fluorescence binding assays were performed on a Hitachi (Tokyo, Japan) F-4500 fluorescence spectrophotometer with a 1 cm light path fluorimeter quartz cuvette. Both of the slit widths for excitation and emission were 10 nm. 1-N-phenyl-naphthylamine (1-NPN) was dissolved in HPLC purity grade methanol to yield a 1 mM stock solution. […] The probes were excited at 337 nm and emission spectra were recorded between 370 and 550 nm. […] Binding data were collected in three independent measurements.
(§2) Dissociation constants of the complex GmolGOBPs/1-NPN (K1-NPN) were calculated by a nonlinear regression binding curve, using Prism 5.0 (GraphPad Software Inc.).

A further assay addresses rGmolGOBP2 (Grapholita molesta, UniProt H9XTU6). Kind of assay: 1-NPN fluorescence binding titration of rGmolGOBP2. The following applies: 2 μM protein, 20 mM Tris-HCl pH 7.4; read-out: dissociation constant of 1-NPN. The procedure:
(§3) Fluorescence binding assays were performed on a Hitachi (Tokyo, Japan) F-4500 fluorescence spectrophotometer with a 1 cm light path fluorimeter quartz cuvette. Both of the slit widths for excitation and emission were 10 nm. 1-N-phenyl-naphthylamine (1-NPN) was dissolved in HPLC purity grade methanol to yield a 1 mM stock solution. A 2 μM solution of the protein in 20 mM Tris-HCl, pH 7.4, was titrated with aliquots of 1 mM 1-NPN to final concentrations of 1, 2, 4, 6, 8, 10, 12, 14, 16, 18, and 22 μM. The probes were excited at 337 nm and emission spectra were recorded between 370 and 550 nm. All ligands (S1 File) used in competitive binding assays were also dissolved in HPLC purity grade methanol. The final concentrations of sex pheromones were between 1 and 22 μM for each rGmolGOBP protein, whereas the concentrations of 30 synthetic plant volatiles to rGmolGOBP1 and 2 were up to 64 and 100 μM, respectively. Binding data were collected in three independent measurements.
(§4) Dissociation constants of the complex GmolGOBPs/1-NPN (K1-NPN) were calculated by a nonlinear regression binding curve, using Prism 5.0 (GraphPad Software Inc.). […]

Another assay addresses T1, rGmolGOBP1 (Grapholita molesta, UniProt H9XTU5).
T1 sequence (H9XTU5 21-164): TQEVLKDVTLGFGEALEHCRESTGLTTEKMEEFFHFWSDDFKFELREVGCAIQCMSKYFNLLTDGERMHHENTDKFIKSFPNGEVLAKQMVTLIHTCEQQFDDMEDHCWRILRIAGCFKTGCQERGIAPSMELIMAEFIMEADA
The assay can be described thus: 1-NPN fluorescence binding titration of rGmolGOBP1. The following applies: 2 μM protein, 20 mM Tris-HCl pH 7.4; read-out: dissociation constant of 1-NPN. Here is the method:
as §3, §4

Another assay addresses GmolGOBP2 (Grapholita molesta, UniProt H9XTU6). The assay can be described thus: Fluorescence competitive binding assay with probe 1-NPN, rGmolGOBP2 wild-type. The procedure: as §1, §2
For another assay, the target named is rGmolPBP1. Set-up: method as in earlier work. The settings on record: cited from earlier work.
Where [1] appears, read: protein and 1-NPN 2 μM, pH 7.4, calculated from IC50, read-out: GmolGOBP1 Ki.
Where [2] appears, read: protein and 1-NPN 2 μM, pH 7.4, displacing half of initial fluorescence, read-out: GmolGOBP1 IC50.
The mark [3] stands for this setting: protein and 1-NPN 2 μM, pH 7.4, calculated from IC50, read-out: GmolGOBP2 Ki.
[4] abbreviates: protein and 1-NPN 2 μM, pH 7.4, displacing half of initial fluorescence, read-out: GmolGOBP2 IC50.

GmolGOBP2, sequence (H9XTU6 entry or part of it): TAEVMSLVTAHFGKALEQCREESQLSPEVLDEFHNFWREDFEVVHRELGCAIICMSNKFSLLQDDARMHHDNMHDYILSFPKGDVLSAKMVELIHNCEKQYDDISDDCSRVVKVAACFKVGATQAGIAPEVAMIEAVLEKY
rGmolGOBP2, sequence (H9XTU6 entry or part of it): as above

Turning to `CCCCCCO` [1-Hexanol], the Ki – broadly, the dissociation constant of the complex between target and ligand, obtained from inhibition or displacement – on GmolGOBP1 (setting [1]) is 19.7 µM. The IC50 (usually the concentration that gives 50% inhibition) at GmolGOBP1 (setting [2]) amounted to 21.4 ± 1.8 µM.

Take `c1ccc(Nc2cccc3ccccc23)cc1` [1-NPN, 1-N-phenyl-naphthylamine]: the Kd at rGmolGOBP2 turned out to be 4.73 µM; on rGmolGOBP1, 11.4 µM.

With `CCCCC(CC)CO` (stereo not drawn) [2-Ethyl-1-hexanol], the Ki at GmolGOBP1 (setting [1]) is 24.8 µM. In addition, the IC50 on GmolGOBP1 (setting [2]) came to 27 ± 1.81 µM.

On to `CC(C)CCO` [3-Methyl-1-butanol], for which the Ki on GmolGOBP1 (setting [1]) was 10.7 µM. Besides, the IC50 on GmolGOBP1 (setting [2]) stood at 11.6 ± 0.81 µM.

On GmolGOBP1, `CCC/C=C/C=O` [(E)-2-Hexenal] returned an IC50 of 23 ± 1.85 µM and a Ki of 21.2 µM.

Take `O=Cc1ccccc1` [Benzaldehyde]: the values for the IC50 on GmolGOBP1 and at GmolGOBP2 were 35 ± 3.28 µM and 91.3 ± 2.87 µM, respectively. Moreover, the results for the Ki on GmolGOBP1 and at GmolGOBP2 were 32.2 µM and 75.4 µM, respectively.

At GmolGOBP1, `N#Cc1ccccc1` [Benzonitrile] displayed an IC50 of 40.4 ± 1.95 µM and a Ki of 37.1 µM.

Consider `CCCCOC(C)=O` [Butyl acetate], for which, on GmolGOBP1, the IC50 is 39.9 ± 2.66 µM and the Ki was found to be 36.7 µM.

For the molecule `CCCCOC(=O)CCC` [Butyl butyrate], the Ki on GmolGOBP1 (setting [1]) was 33.1 µM. The IC50 on GmolGOBP1 (setting [2]) is 36 ± 2.5 µM.

Take `CCCCCC(=O)OCCCC` [Butyl hexanoate]: the Ki is 17.7 µM on GmolGOBP1 (setting [1]) and 43.1 µM on GmolGOBP2 (setting [3]). The values for the IC50 at GmolGOBP1 (setting [2]) and on GmolGOBP2 (setting [4]) were 19.2 ± 1.27 µM and 52.2 ± 2.49 µM, respectively.

At GmolGOBP1, `CC/C=C\CCO` [Cis-3-Hexen-1-ol] returned an IC50 of 18.3 ± 1.55 µM and a Ki of 16.8 µM.

Turning to `CC/C=C\CCOC(C)=O` [Cis-3-Hexenyl acetate], on GmolGOBP1 (setting [1]), the Ki was 22.4 µM. The IC50 on GmolGOBP1 (setting [2]) stood at 24.3 ± 1.71 µM.

For the molecule `CCCCCCCCCC=O` [Decanal], the results for the Ki at GmolGOBP1 (setting [1]) and on GmolGOBP2 (setting [3]) were 16 µM and 42.4 µM, respectively. For the same molecule, the IC50 was 17.4 ± 1.3 µM on GmolGOBP1 (setting [2]) and 51.3 ± 3.18 µM at GmolGOBP2 (setting [4]).

For `CCCCCCCCCC` [Decane], the Ki on GmolGOBP1 (setting [1]) is 5.19 µM. Further, the IC50 at GmolGOBP1 (setting [2]) is 5.64 ± 0.69 µM.

With `CCC/C=C/CCCCCCCOC(C)=O` [E8-12:AC, (E)-8-dodecenyl acetate], the Ki is 8.85 µM at GmolGOBP1 (setting [1]) and 1.09 µM at rGmolPBP1. Moreover, the IC50 at GmolGOBP1 (setting [2]) was 10.5 ± 0.87 µM.

On to `CCCC(=O)OCC` [Ethyl butyrate], for which the Ki on GmolGOBP1 (setting [1]) was 33.2 µM. Also, at GmolGOBP1 (setting [2]), the IC50 amounted to 36.1 ± 2.88 µM.

Turning to `CCCCCCC(=O)OCC` [Ethyl heptanoate], the Ki on GmolGOBP1 (setting [1]) is 34.4 µM; at GmolGOBP2 (setting [3]) it was 73.2 µM. Also, the values for the concentration for half-maximal inhibition (IC50) at GmolGOBP1 (setting [2]) and at GmolGOBP2 (setting [4]) were 37.4 ± 2.35 µM and 88.7 ± 3.01 µM, respectively.

With `CCCCCC(=O)OCC` [Ethyl hexanoate], the Ki on GmolGOBP1 (setting [1]) was 35 µM. Besides, the IC50 at GmolGOBP1 (setting [2]) is 38.1 ± 3.36 µM.
